Here are results for three compounds from US12605653B2, “Anionic switchable hydrophilicity solvents” (QUEEN'S UNIVERSITY AT KINGSTON, priority 2022, dated 2026).

The conditions of data set [1]: binary mixtures: score of the worse actor of the two; cited from earlier work.
The conditions of data set [2]: NOEC or ECx; binary mixtures: worse actor; cited from earlier work.
The conditions of data set [3]: binary mixtures: score of the worse actor of the two; cited from earlier work. The source holds these as a separate data set.
The conditions of data set [4]: binary mixtures: worse actor; cited from earlier work.
The subject of a further data set is fish. The settings on record: 96 hr LC50 (fish); binary mixtures: worse actor; cited from earlier work.
For data set [5] the following is noted: specific target organ toxicity, single exposure; binary mixtures: worse actor; cited from earlier work.
For data set [6] the following is noted: binary mixtures: worse actor; cited from earlier work. This is another data set of the same source.
For data set [7] the following is noted: binary mixtures: score of the worse actor of the two; cited from earlier work. This is another data set of the same source.
A short description of data set [8]: Switching behaviour of ASHS systems under elevated pressures of CO2. As to conditions: EHA:NaOH:H2O combinations that did not become biphasic upon 1 bar of CO2. Type of data set: physicochemical.
Procedure: The sight gauge was kept at a constant temperature (20° C.) in a water bath. The solutions were maintained under stirring due to a magnetic stir bar controlled by a magnetic stir plate. To maximize the stirring, the vessel was placed on its side (horizontal position). The mixture was then pressurized to 10 bar of CO2 in the sight gauge. In order to determine the volume of the phases obtained, measurements of the height of the water-rich and the carboxylic acid phase were obtained using a cathetometer while the vessel was in a vertical position. The relationship between height and internal volume on the sight gauge is known. The vessel was then slowly depressurized. The phases were collected using a glass pipette.
The conditions of data set [9]: EHA as solvent.
Data set [10] in a line: Evaluation of the switching behaviour of ASHS systems (carboxylic acid/base/water) under air and 1 bar of CO2. Type of data set: physicochemical. The settings on record: for Behaviour of the system after CO2 addition / pH under 1 bar of CO2 / pH under air: 20° C. As to the method:
Base solutions were prepared by combining the desired base and water (mass for components measured in an analytical scale) into either a 10 or 25 mL graduated cylinder (containing a magnetic stir bar) depending on the final volume of the mixture obtained. The carboxylic acid (mass measured using an analytical balance prior to addition) being studied was added to the base solution, and the mixture was mixed with the help of a magnetic stir plate. The amount of base and water used were selected based on the acid:base:water ratio desired. Experiments were carried out using stoichiometric and substoichiometric amounts of the base relative to the number of mols of acid added. In addition, the quantity of water used was adjusted based on the acid:water mass ratio desired. A typical experiment would contain 1 g of the carboxylic acid; between 0.4 and 1 mol of base per mol of acid; and a water mass varying from 1 to 9.5 g.
During a typical experiment, CO2 would be added for approximately 2 h at atmospheric pressure. At the end of the 2 h, the sparge tube would be removed, and the number and volume of the phases obtained would be recorded. The pH was once again recorded. For mixtures with only 1 phase, the pH of that phase was recorded. While for mixtures with 2 phases, the pH of the aqueous phase was recorded.
In the systems in which the base:acid mole ratio and the water:acid mass ratio were being studied, a slight modification from this method was used. The acid being tested (1 g) was mixed with 1 g of water and the required amount of NaOH (based on the acid:base molar ratio desired) to prepare the mixture. […]
The base solution was then added to the carboxylic acid, and the next steps followed the procedure previously described.

[11] abbreviates: base 3DMAP, base:acid mole ratio 0.50:1, H2O:acid mass ratio 2.5:1.
Setting [12] is: base DMEA, base:acid mole ratio 0.55:1, H2O:acid mass ratio 2.5:1.
The mark [13] stands for this setting: base Jeffamine D-230 (two moles acid per mole D-230), H2O:acid mass ratio 12:1.
Setting [14] is: base Jeffamine D-230 (two moles acid per mole D-230), H2O:acid mass ratio 15:1.
Setting [15] is: base MDEA, base:acid mole ratio 0.55:1, H2O:acid mass ratio 2.5:1.
[16] abbreviates: base TEA, MDEA, DMEA or 3-DMAP, base:acid mol ratio 1:1, H2O:acid mass ratio 1:1.
The mark [17] stands for this setting: base TEA, MDEA, DMEA or 3-DMAP, base:acid mol ratio 1:1, H2O:acid mass ratio 2:1.
Where [18] appears, read: base TEA, MDEA, DMEA or 3-DMAP, base:acid mol ratio 1:1, H2O:acid mass ratio 6:1.
Setting [19] is: base TEA, MDEA, DMEA or 3-DMAP, base:acid mol ratio 1:1, H2O:acid mass ratio 15:1.
Setting [20] is: base TEA, base:acid mole ratio 0.55:1, H2O:acid mass ratio 2.5:1.
Where [21] appears, read: substoichiometric aqueous NaOH, 0.6 to 0.7 equivalents of base.

With `CCCCN(CCO)CCCC` [Bu2NCH2CH2OH, N,N-dibutylethanolamine], the “Acute toxicity (oral), GHS category” value in [1] is listed as 4 (category 4 (H302) means 300 < LD50 ≤ 2000 mg/kg). The “Chronic aquatic toxicity, GHS category” value in [2] is on record as 3 (category 3 (H412) means 0.1 < NOEC or ECx ≤ 1). Moreover, the “Acute toxicity (dermal), GHS category” value in data set [3] is listed as 4 (category 4 (H312) means 1000 < LD50 ≤ 2000 mg/kg). Besides, in data set [4], the “Eye irritation, GHS category” value was 1. For the same compound, the “Acute aquatic toxicity, GHS category” value in the data set on fish was 3 (category 3 (H402) means 10 < 96 hr LC50 (fish) ≤ 100 mg/L). In data set [5], the “Organ toxicity, GHS category” value is on record as 3. Further, the “Skin irritation, GHS category” value in [6] is recorded as 1C.
`CN(C)C1CCCCC1` [CyNMe2]: the “Acute toxicity (oral), GHS category” value in [1] is 3 (Category 3 (H301) means 50 < LD50 ≤ 300 mg/kg). Besides, the “Acute toxicity (dermal), GHS category” value in data set [3] is recorded as 3 (Category 3 (H311) means 200 < LD50 ≤ 1000 mg/kg). The “Acute toxicity (inhalation), GHS category” value in data set [7] was 3 (category 3 (H331) means 2 < LC50 ≤ 10 mg/L). Moreover, the “Acute aquatic toxicity, GHS category” value with fish is 1 (Category 1 (H400) means 96 hr LC50 (fish) ≤ 1.0 mg/L).
Turning to `CCCCC(CC)C(=O)O` (centres unmarked) [EHA, 2-ethylhexanoic acid], the “Behaviour upon the addition of 10 bar of CO2” value in data set [8] is listed as “successful switchable behaviour”. Besides, the “maximum EPS loading that still allows the next steps” value in [9] is on record as 5 wt %. Further, the “pH before the addition of CO2” value in [10] (0.8:1 NaOH:EHA mole ratio, 3:1 H2O:EHA mass ratio) is 7.2; in data set [10] (0.9:1 NaOH:EHA mole ratio, 1:1 H2O:EHA mass ratio), 7.5; in [10] (0.9:1 NaOH:EHA mole ratio, 3:1 H2O:EHA mass ratio), 7.2; in [10] (0.9:1 NaOH:EHA mole ratio, 4:1 H2O:EHA mass ratio), 7.1; in data set [10] (0.9:1 NaOH:EHA mole ratio, 5:1 H2O:EHA mass ratio), 7.2. In addition, the “Behaviour of the system” value was “did not present a switchable behaviour” in [10] (0.8:1 NaOH:EHA mole ratio, 3:1 H2O:EHA mass ratio, 1 bar CO2); “presented a switchable behaviour” in data set [10] (0.9:1 NaOH:EHA mole ratio, 5:1 H2O:EHA mass ratio, 1 bar CO2); “do not present a switchable behaviour” in data set [10] (0.9:1 NaOH:EHA mole ratio, H2O:EHA mass ratio from 1:1 to 3:1, 1 bar of CO2); “become biphasic under air” in data set [10] (0.9:1 NaOH:EHA mole ratio, extra water beyond 4:1 H2O:EHA mass ratio); “switchable behaviour” in data set [10] (2.5:1 H2O:EHA mass ratio, 0.65 NaOH:EHA mol ratio, 1 bar CO2); “remains monophasic after CO2 addition” in [10] (2.5:1 H2O:EHA mass ratio, 0.70 NaOH:EHA mol ratio, 1 bar CO2). The “Behaviour of the system” value is given as “phase switchable behaviour was not observed” in data set [10] (base NH4OH, 2:1 H2O:acid mass ratio, 1 bar CO2); “successful switchable behaviour” in data set [10] (base NaOH, 2:1 H2O:acid mass ratio, 1 bar CO2, narrow range of base:acid ratio); “Switchable” in [10] (base NaOH, carboxylic acid:H2O mass ratio 1:2.5, carboxylic acid:NaOH mol ratio 1:0.6); “the acid remains as a separate phase under air” in [10] (base pyridine, 2:1 H2O:acid mass ratio). The “pH under air, lowest value once extra water is added” value in data set [10] (0.9:1 NaOH:EHA mole ratio, more water than 4:1, pH decreases from 7.1) worked out at 6.6. Also, the “Behaviour of the system after CO2 addition” value in data set [10] (base 3DMAP, base:acid mole ratio 0.50:1, H2O:acid mass ratio 2.5:1, 1 bar CO2, threshold 50 vol % recovered) is reported as “Phase separation above 50”; in data set [10] (base DMEA, base:acid mole ratio 0.55:1, H2O:acid mass ratio 2.5:1, 1 bar CO2, threshold 50 vol % recovered), “Phase separation above 50”; in [10] (base Jeffamine D-230 (two moles acid per mole D-230), H2O:acid mass ratio 12:1, 1 bar CO2, partial = acid recovered smaller than mass added), “Partial phase separation”; in data set [10] (base Jeffamine D-230 (two moles acid per mole D-230), H2O:acid mass ratio 15:1, 1 bar CO2, partial = acid recovered smaller than mass added) it was “Partial phase separation”; in [10] (base MDEA, base:acid mole ratio 0.55:1, H2O:acid mass ratio 2.5:1, 1 bar CO2, threshold 50 vol % recovered), “No phase separation”; in data set [10] (base TEA, MDEA, DMEA or 3-DMAP, base:acid mol ratio 1:1, H2O:acid mass ratio 1:1, 1 bar CO2), “No phase separation”. The “Behaviour of the system after CO2 addition” value in [10] (base TEA, MDEA, DMEA or 3-DMAP, base:acid mol ratio 1:1, H2O:acid mass ratio 2:1, 1 bar CO2) is “No phase separation”; in data set [10] (base TEA, MDEA, DMEA or 3-DMAP, base:acid mol ratio 1:1, H2O:acid mass ratio 6:1, 1 bar CO2) it was “No phase separation”; in [10] (base TEA, MDEA, DMEA or 3-DMAP, base:acid mol ratio 1:1, H2O:acid mass ratio 15:1, 1 bar CO2), “No phase separation”; in data set [10] (base TEA, base:acid mole ratio 0.55:1, H2O:acid mass ratio 2.5:1, 1 bar CO2), “No phase separation”. Further, the “pH under 1 bar of CO2” value in data set [10] (setting [11]) was 6.64; in data set [10] (setting [12]) it was 6.69; in data set [10] (setting [13]), 6.94; in data set [10] (setting [14]) it was 6.74; in [10] (setting [15]) it was 6.61; in data set [10] (setting [16]) it was 7.50-8.05. Also, the “pH under 1 bar of CO2” value in data set [10] (setting [17]) is on record as 7.20-7.60; in data set [10] (setting [18]) it was 6.20-6.70; in data set [10] (setting [19]), 6.60-6.80; in [10] (setting [20]), 6.53. The pH under air in data set [10] (setting [11]) is 6.53; in data set [10] (setting [12]), 6.57; in data set [10] (setting [13]) it was 6.98; in data set [10] (setting [14]) it was 8.34; in data set [10] (setting [15]), 6.50; in data set [10] (setting [16]) it was 7.50-8.30. For the same compound, the pH under air is recorded as 8.00-8.15 in [10] (setting [17]), 7.50-8.10 in data set [10] (setting [18]), 6.80-7.90 in [10] (setting [19]) and 6.48 in data set [10] (setting [20]). The “Phase behaviour upon addition of 1 bar of CO2” value in data set [10] (base Jeffamine D-230, TEA, MDEA, DMEA or 3DMAP, base:acid mole ratio 1:1, water:acid mass ratio 15:1 and other ratios) was “no phase separation was observed”. Moreover, the “Phase behaviour upon addition of CO2” value in data set [10] (setting [21]) is reported as “phase separation was observed”. For the same compound, in [10] (setting [21]), the Phases under air result was “one phase”.
